In patent publication US8664210B2, “Aminooxime derivatives of 2- and/or 4-substituted androstanes and androstenes as medicaments for cardiovascular disorders” (priority 2007, dated 2014):
Where a name gives a salt, the structure may show the parent alone. Read-outs that look alike come from different tables or passages of the source.

Columns and labels:
[1] = molecular target: Dog Kidney Na+, K+-ATPase (Canis lupus familiaris, UniProt P50997); assay: Dog kidney Na+,K+-ATPase inhibition (hydrolysis of 32P-ATP); type: biochemical
anesthetized guinea-pig = assay: inotropic effect and lethal dose in anesthetized guinea-pig (infusion over 90 minutes); type: in vivo; settings: for Lethal dose/ED80: calculated in the died animals
Method: The inotropic activity is shown as maximum increase in contractile force (Emax measured as +dP/dTmax), dose inducing maximum positive inotropic effect (EDmax), inotropic potency (ED80, dose increasing +dP/dTmax by 80%); the toxicity as the ratio between lethal dose and inotropic potency (calculated in the died animals). All animals, previously anesthetized, were administered the drug through infusion over a 90 minute period.

Na+,K+-ATPase = Na+,K+-ATPase (Canis lupus familiaris, UniProt P50997); settings: relative to compound 22b; cited from earlier work
[2] = anesthetized guinea-pig, infusion over 90 min
[3] = dog kidney enzyme, read-out: Na+, K+-ATPase Inhibition IC50

## C[C@@H]1/C(=N/OCCN)CC[C@@]2(C)C1C(=O)C[C@@H]1[C@@H]2CC[C@]2(C)C(=O)CC[C@@H]12.Cl (stereo partly drawn) [Compd. 22d, (E)-3-(2-aminoethoxyimino)-4α-methylandrostan-6,17-dione hydrochloride]
[1]
  IC50: 6000 nM
Anesthetized guinea-pig; [2]
  Dead/treated: 0/3
  ED80 (inotropic potency, dose increasing +dP/dTmax by 80%): 23.0 µmol/kg
  EDmax (dose inducing maximum positive inotropic effect): 149 µmol/kg
  Emax % increase in +dP/dTmax (maximum increase in contractile force): 190%
  Maximum dose infused: 250.3 µmol/kg
Anesthetized guinea-pig; anesthetized guinea-pig, infusion over 90 min, hydrochloride
  Notes (toxic signs during infusion): tremors and contractions appeared during the infusion
Na+,K+-ATPase
  times less active than des-methyl compound 22b: 30

## C[C@H]1O[C@@H](O[C@H]2[C@@H](O)C[C@H](O[C@H]3[C@@H](O)C[C@H](O[C@H]4CC[C@@]5(C)[C@H](CC[C@@H]6[C@@H]5C[C@@H](O)[C@]5(C)[C@@H](C7=CC(=O)OC7)CC[C@]65O)C4)O[C@@H]3C)O[C@@H]2C)C[C@H](O)[C@@H]1O [Digoxin, digoxin]
Anesthetized guinea-pig; [2]
  Dead/treated: 10/10
  ED80 (inotropic potency, dose increasing +dP/dTmax by 80%): 0.29 µmol/kg
  EDmax (dose inducing maximum positive inotropic effect): 0.65 µmol/kg
  Emax % increase in +dP/dTmax (maximum increase in contractile force): 158%
  Maximum dose infused: 1.16 µmol/kg
Anesthetized guinea-pig
  Lethal dose/ED80: 4.0

## CC1=C2CC[C@H]3[C@@H]4CC[C@H](O)[C@@]4(C)CC[C@@H]3[C@@]2(C)CC/C1=N\OCCN [I-aa, (E)-3-(2-Aminoethoxyimino)-4-methylandrost-4-en-17β-ol hydrochloride]
[1]
  IC50: 4900 nM

## CC1(C)/C(=N/OCCN)CC[C@@]2(C)C1CC[C@H]1[C@@H]3CC[C@H](O)[C@@]3(C)CC[C@@H]12 (stereo partly drawn) [I-ag, (E)-3-(2-Aminoethoxyimino)-4,4-dimethylandrostan-17β-ol fumarate]
[1]
  IC50: 3900 nM

## CC1(C)/C(=N/OCCCN)CC[C@@]2(C)C1CC[C@H]1[C@@H]3CC[C@H](O)[C@@]3(C)CC[C@@H]12 (stereo partly drawn) [I-ai, (E)-3-(3-Aminopropoxyimino)-4,4-dimethylandrostan-17β-ol fumarate]
[1]
  IC50: 1900 nM

## CNCCCON=C1CCC2(C)C3CCC4(C)C(O)CCC4C3CCC2C1(C)C (stereo not drawn) [I-aj, (E)-3-(3-N-Methylaminopropoxyimino)-4,4-dimethylandrostan-17β-ol fumarate]
[1]
  IC50: 1400 nM

## CC1(C)/C(=N/O[C@@H]2CCNC2)CC[C@@]2(C)C1CC[C@H]1[C@@H]3CC[C@H](O)[C@@]3(C)CC[C@@H]12 (stereo partly drawn) [I-ak, (E)-3-[3-(R)-Pyrrolidinyl]oxyimino-4,4-dimethylandrostan-17β-ol fumarate]
[1]
  IC50: 2000 nM

## CC1(C)/C(=N/O[C@H]2CCNC2)CC[C@@]2(C)C1CC[C@H]1[C@@H]3CC[C@H](O)[C@@]3(C)CC[C@@H]12 (stereo partly drawn) [I-al, (E)-3-[3-(S)-Pyrrolidinyl]oxyimino-4,4-dimethylandrostan-17β-ol fumarate]
[1]
  IC50: 2600 nM

## CC1(C)/C(=N/OCCN)CC[C@@]2(C)C1CC[C@@H]1[C@@H]2CC[C@]2(C)C(=O)CC[C@@H]12 (stereo partly shown) [I-am, (E)-3-(2-Aminoethoxyimino)-4,4-dimethylandrostan-17-one fumarate]
[1]
  IC50: 1700 nM

## CC1(C)/C(=N/OCCCN)CC[C@@]2(C)C1CC[C@@H]1[C@@H]2CC[C@]2(C)C(=O)CC[C@@H]12 (stereo partly shown) [I-an, (E)-3-(3-Aminopropoxyimino)-4,4-dimethylandrostan-17-one fumarate]
[1]
  IC50: 1500 nM

## CC1(C)/C(=N/O[C@@H]2CCNC2)CC[C@@]2(C)C1CC[C@@H]1[C@@H]2CC[C@]2(C)C(=O)CC[C@@H]12 (stereo partly drawn) [I-ao, (E)-3-[3-(R)-Pyrrolidinyl]oxyimino-4,4-dimethylandrostan-17-one fumarate]
[1]
  IC50: 1300 nM

## CC1(C)/C(=N/OCCN)CC[C@@]2(C)C1C(=O)C[C@@H]1[C@@H]2CC[C@]2(C)C(=O)CC[C@@H]12 (stereo partly shown) [I-at, (E)-3-(2-Aminoethoxyimino)-4,4-dimethylandrostan-6,17-dione fumarate]
[1]
  IC50: 1700 nM

## CC1(C)/C(=N/O[C@@H]2CCNC2)CC[C@]2(C)[C@H]3CC[C@]4(C)C(=O)CC[C@H]4[C@@H]3CC(=O)[C@@]12O [I-au, (E)-3-[3-(R)-Pyrrolidinyl]oxyimino-4,4-dimethyl-5α-hydroxyandrostan-6,17-dione fumarate]
[1]
  IC50: 2200 nM

## C[C@]12CC[C@H]3[C@@H](CC=C4C5(CC5)/C(=N/OCCN)CC[C@@]43C)[C@@H]1CC[C@@H]2O [I-bb, (E)-3-(2-Aminoethoxyimino)-4-(spirocyclopropane)-5-androsten-17β-ol fumarate]
[1]; [3]
  IC50: 1500 nM

## C[C@]12CC[C@H]3[C@@H](CC=C4C5(CC5)/C(=N/O[C@@H]5CCNC5)CC[C@@]43C)[C@@H]1CC[C@@H]2O [I-bc, (E)-3-[3-(R)-Pyrrolidinyl]oxyimino-4-spirocyclopropane androst-5-en-17β-ol fumarate]
[1]; [3]
  IC50: 1800 nM

## CC[C@H]1/C(=N/OCCN)CC[C@@]2(C)C1C(=O)C[C@@H]1[C@@H]2CC[C@]2(C)C(=O)CC[C@@H]12 (stereo partly drawn) [I-bd, (E)-3-(2-Aminoethoxyimino)-4β-ethylandrostan-6,17-dione hydrochloride]
[1]
  IC50: 130 nM

## CC[C@H]1/C(=N/O[C@@H]2CCNC2)CC[C@@]2(C)C1C(=O)C[C@@H]1[C@@H]2CC[C@]2(C)C(=O)CC[C@@H]12.Cl (stereo partly drawn) [I-be, (E)-3-[3-(R)-Pyrrolidinyl]oxyimino-4β-ethylandrostan-6,17-dione hydrochloride]
[1]
  IC50: 49 nM
Anesthetized guinea-pig; [2]
  Dead/treated: 3/3
  ED80 (inotropic potency, dose increasing +dP/dTmax by 80%): 1.40 µmol/kg
  EDmax (dose inducing maximum positive inotropic effect): 2.81 µmol/kg
  Emax % increase in +dP/dTmax (maximum increase in contractile force): 179%
  Maximum dose infused: 12.6 µmol/kg
Anesthetized guinea-pig
  Lethal dose/ED80: 7.8

## C[C@]12CC[C@H]3[C@@H](CCC4C/C(=N\OCCN)[C@H](F)C[C@@]43C)[C@@H]1CC[C@@H]2O (stereo partly drawn) [I-bf, (E)-3-(2-Aminoethoxyimino)-2α-fluoroandrostan-17β-ol fumarate]
[1]
  IC50: 2400 nM

## C[C@]12CC[C@H]3[C@@H](CCC4C/C(=N\O[C@@H]5CCNC5)[C@H](F)C[C@@]43C)[C@@H]1CC[C@@H]2O (stereo partly drawn) [I-bg, (E)-3-[3-(R)-Pyrrolidinyl]oxyimino-2α-fluoroandrostan-17β-ol fumarate]
[1]
  IC50: 840 nM

## C[C@]12C[C@@H](F)/C(=N/O[C@@H]3CCNC3)CC1CC[C@@H]1[C@@H]2CC[C@]2(C)C(=O)CC[C@@H]12.Cl (stereo partly drawn) [I-bh, (E)-3-[3-(R)-Pyrrolidinyl]oxyimino-2α-fluoroandrostan-17-one hydrochloride]
[1]
  IC50: 1100 nM
Anesthetized guinea-pig; [2]
  Dead/treated: 2/2
  ED80 (inotropic potency, dose increasing +dP/dTmax by 80%): 7.00 µmol/kg
  EDmax (dose inducing maximum positive inotropic effect): 14.0 µmol/kg
  Emax % increase in +dP/dTmax (maximum increase in contractile force): 210%
  Maximum dose infused: 100.8 µmol/kg
Anesthetized guinea-pig
  Lethal dose/ED80: 7.5

## C[C@]12CC[C@H]3[C@@H](CC(=O)C4C/C(=N\O[C@@H]5CCNC5)[C@H](F)C[C@@]43C)[C@@H]1CC[C@@H]2O (stereo partly drawn) [I-bi, (E)-3-[3-(R)-Pyrrolidinyl]oxyimino-2α-fluoro-17β-hydroxyandrostan-6-one fumarate]
[1]
  IC50: 1300 nM

## CO/N=C1\C[C@H]2[C@@H]3CC[C@H](O)[C@@]3(C)CC[C@@H]2[C@@]2(C)C[C@@H](F)/C(=N/O[C@@H]3CCNC3)CC12 (stereo partly drawn) [I-bk, (E)-3-[3-(R)-Pyrrolidinyl]oxyimino-2α-fluoro-6-(E)-methoxyiminoandrostan-17β-ol fumarate]
[1]; [3]
  IC50: 1900 nM

## C[C@]12CC/C(=N\O[C@@H]3CCNC3)[C@@H](F)C1CC[C@@H]1[C@@H]2CC[C@]2(C)C(=O)CC[C@@H]12 (stereo partly drawn) [I-bl, (E)-3-[3-(R)-Pyrrolidinyl]oxyimino-4α-fluoroandrostan-17-one fumarate]
[1]
  IC50: 550 nM

## C[C@]12CC/C(=N\O[C@@H]3CCNC3)[C@@H](O)C1CC[C@@H]1[C@@H]2CC[C@]2(C)C(=O)CC[C@@H]12 (stereo partly drawn) [I-bn, (E)-3-[3-(R)-Pyrrolidinyl]oxyimino-4α-hydroxyandrostan-17-one fumarate]
[1]
  IC50: 2700 nM

## C[C@]12CC/C(=N\O[C@@H]3CCNC3)C3(CC3)C1=CC[C@@H]1[C@@H]2CC[C@]2(C)C(=O)CC[C@@H]12 [I-bo, (E)-3-[(3-(R)-Pyrrolidinyl)oxyimino]-4-spirocyclopropane-5-androsten-17-one fumarate]
[1]; [3]
  IC50: 690 nM

## CC12CCC3C(CCC4C5(CCCC5)C(=NOC5CCNC5)CCC34C)C1CCC2O [I-bq, (E)-3-[(3-(R)-Pyrrolidinyl)oxyimino]-4-spirocyclopentaneandrostan-17β-ol fumarate]
[1]; [3]
  IC50: 3100 nM

## CC12CCC3C(C(O)CC4C5(CCCC5)C(=NOC5CCNC5)CCC34C)C1CCC2O [I-bs, (E)-3-[(3-(R)-Pyrrolidinyl)oxyimino]-4-spirocyclopentaneandrostan-7α,17β-diol fumarate]
[1]; [3]
  IC50: 1100 nM

## CC(C)C1=C2CC[C@H]3[C@@H]4CC[C@H](O)[C@@]4(C)CC[C@@H]3[C@@]2(C)CC/C1=N\O[C@@H]1CCNC1 [I-bv, fumarate]
[1]; [3]
  IC50: 3900 nM

## CC[C@@H]1/C(=N/O[C@@H]2CCNC2)CC[C@@]2(C)C1CC[C@H]1[C@@H]3CC[C@H](O)[C@@]3(C)CC[C@@H]12 (stereo partly drawn) [I-bw, (E)-3-[(3-(R)-Pyrrolidinyl)oxyimino]-4α-ethylandrostan-17β-ol fumarate]
[1]
  IC50: 1800 nM

## CC[C@H]1/C(=N/O[C@@H]2CCNC2)CC[C@@]2(C)C1[C@@H](O)C[C@@H]1[C@@H]2CC[C@]2(C)C(=O)CC[C@@H]12 (stereo partly drawn) [I-bx, (E)-3-[3-(R)-Pyrrolidinyl]oxyimino-4β-ethyl-6α-hydroxyandrostan-17-one hydrochloride]
[1]
  IC50: 65 nM

## CC1(C)/C(=N/O[C@@H]2CCNC2)CC[C@]2(C)[C@H]3CC[C@]4(C)[C@@H](O)CC[C@H]4[C@@H]3CC[C@@]12O [I-by, (E)-3-[3-(R)-Pyrrolidinyl]oxyimino-4,4-dimethylandrostan-5α,17β-diol hydrochloride]
[1]
  IC50: 2200 nM
